Laboratory results reported in PMC10657444, “Design and evaluation of tadpole-like conformational antimicrobial peptides” (Communications Biology, 2023).
Values after ≈ are worked out from the molar mass of the structure shown. Values joined by “and” are separate entries in the source; they are usually repeats but may differ in a detail not shown here. Equal values may be shown once. Non-standard residues stand in square brackets, D forms with d. Residues, ends and D or L forms follow the SMILES beside them.

Key:
E. coli ATCC 25922 = type: cell-based, Escherichia coli
Excerpt: (§1) Bacteria were cultivated in Luria-Bertani (LB) broth.

MRSA USA 300 [1] = assay: Membrane permeability, SYTOX Green; type: cell-based, Staphylococcus aureus
Procedure: Fluorescent probe SYTOX^TM Green (Invitrogen/ Life Technologies, S7020) was used to analyze the effect of HT2 and RI-HT2 on membrane permeability of MRSA USA 300 and K. pneumoniae ATCC 700603 as described elsewhere. SYTOX^TM Green is a DNA binding dye that is fluorescent when bound to nucleic acids and only enters cells with compromised plasma membranes. MRSA USA 300 and K. pneumoniae ATCC 700603 were cultured in LB broth to mid log phase at 37 °C and washed with PBS and resuspended (OD595 ≈ 0.1) in the same buffer. SYTOX^TM Green was added into the cell suspension with a final concentration of 5 μM and being kept in dark for 20 min. 98 µL pre-treated cell suspension was transferred into wells of 96-well glass black plates. Then, 2 µL of compound or DMSO were added to initiate the reaction. The final concentrations of HT2 and RI-HT2 were 1 ×, 2 ×, 4 × and 8 × MIC. Fluorescence strength was measured with excitation/emission wavelength of 485/528 nm every 5 min for 60 min.

MRSA ATCC 43300 = type: cell-based, Staphylococcus aureus; conditions: ATCC 43300
Excerpt: as §1

MRSA USA 300 [2] = type: cell-based, Staphylococcus aureus
Excerpt: as §1

MRSA 3393 = type: cell-based, Staphylococcus aureus; conditions: 3393
Excerpt: as §1

[3] = system: K. pneumoniae ATCC 700603; assay: microbe, parasite or virus in culture; type: cell-based, Klebsiella pneumoniae
Procedure: MRSA USA 300 and K. pneumoniae ATCC 700603 were employed to assess the development of resistance. From inoculated microtiter panels, an aliquot of the well with the highest concentration permitting growth was taken and back diluted in fresh media to a turbidity of a 0.5 McFarland standard. This suspension was then further diluted and used to inoculate a fresh MIC panel resulting in a final concentration of 5 × 10^6 CFU/mL. Panels were incubated according to CLSI guidelines (M07, 11th edition, 2018), MICs were recorded and the next inoculum was prepared from the well containing the highest concentration of drug that allowed growth in identical fashion as described above.

## CC[C@@H](C)[C@@H](NC(=O)[C@@H](Cc1ccccc1)NC(=O)[C@@H](Cc1ccccc1)NC(=O)[C@@H](Cc1ccccc1)NC(=O)[C@H](N)Cc1ccccc1)C(=O)N[C@H](CCCNC(=N)N)C(=O)N[C@H](CCCNC(=N)N)C(=O)N[C@H](CC(C)C)C(=O)N[C@H](Cc1ccccc1)C(=O)N[C@H](CCCNC(=N)N)C(N)=O [RI-HT2] (H-[dF][dF][dF][dF][dI][dR][dR][dL][dF][dR]-NH2; N-terminus assumed)
E. coli ATCC 25922
  MIC Gram- E. coli ATCC 25922: 3.13 µM (≈ 4.53 µg/mL)
MRSA USA 300 [1]; 2 × MIC, time 0 min
  Fluorescence intensity: 1131 and 1217 and 1235
MRSA USA 300 [1]; 2 × MIC, time 5 min
  Fluorescence intensity: 20197 and 21230 and 20865
MRSA USA 300 [1]; 2 × MIC, time 10 min
  Fluorescence intensity: 25460 and 25912 and 25261
MRSA USA 300 [1]; 2 × MIC, time 15 min
  Fluorescence intensity: 28346 and 28832 and 27920
MRSA USA 300 [1]; 2 × MIC, time 20 min
  Fluorescence intensity: 30460 and 31033 and 29642
MRSA USA 300 [1]; 2 × MIC, time 25 min
  Fluorescence intensity: 31855 and 32475 and 30920
MRSA USA 300 [1]; 2 × MIC, time 30 min
  Fluorescence intensity: 32738 and 33363 and 31902
MRSA USA 300 [1]; 2 × MIC, time 35 min
  Fluorescence intensity: 33433 and 34141 and 32365
MRSA USA 300 [1]; 4 × MIC, time 0 min
  Fluorescence intensity: 1186 and 1404 and 1281
MRSA USA 300 [1]; 4 × MIC, time 5 min
  Fluorescence intensity: 40226 and 40219 and 41612
MRSA USA 300 [1]; 4 × MIC, time 10 min
  Fluorescence intensity: 48704 and 48472 and 50316
MRSA USA 300 [1]; 4 × MIC, time 15 min
  Fluorescence intensity: 53321 and 53163 and 55112
MRSA USA 300 [1]; 4 × MIC, time 20 min
  Fluorescence intensity: 56328 and 55931 and 58102
MRSA USA 300 [1]; 4 × MIC, time 25 min
  Fluorescence intensity: 58334 and 57993 and 60104
MRSA USA 300 [1]; 4 × MIC, time 30 min
  Fluorescence intensity: 59686 and 59179 and 61418
MRSA USA 300 [1]; 4 × MIC, time 35 min
  Fluorescence intensity: 60470 and 60307 and 62172
MRSA USA 300 [1]; 8 × MIC, time 0 min
  Fluorescence intensity: 1486 and 1674 and 1277
MRSA USA 300 [1]; 8 × MIC, time 5 min
  Fluorescence intensity: 46924 and 49356 and 49374
MRSA USA 300 [1]; 8 × MIC, time 10 min
  Fluorescence intensity: 54383 and 56666 and 56984
MRSA USA 300 [1]; 8 × MIC, time 15 min
  Fluorescence intensity: 57832 and 59952 and 60652
MRSA USA 300 [1]; 8 × MIC, time 20 min
  Fluorescence intensity: 59829 and 61957 and 62485
MRSA USA 300 [1]; 8 × MIC, time 25 min
  Fluorescence intensity: 61022 and 63005 and 63531
MRSA USA 300 [1]; 8 × MIC, time 30 min
  Fluorescence intensity: 61916 and 63588 and 64175
MRSA USA 300 [1]; 8 × MIC, time 35 min
  Fluorescence intensity: 62425 and 64473 and 64696
MRSA USA 300 [1]; 8 × MIC, time 40 min
  Fluorescence intensity: 62708
MRSA USA 300 [1]; MIC, time 0 min
  Fluorescence intensity: 1304 and 1201 and 1387
MRSA USA 300 [1]; MIC, time 5 min
  Fluorescence intensity: 12522 and 12645 and 12185
MRSA USA 300 [1]; MIC, time 10 min
  Fluorescence intensity: 14676 and 14962 and 14128
MRSA USA 300 [1]; MIC, time 15 min
  Fluorescence intensity: 16119 and 16290 and 15431
MRSA USA 300 [1]; MIC, time 20 min
  Fluorescence intensity: 16841 and 16805 and 16042
MRSA USA 300 [1]; MIC, time 25 min
  Fluorescence intensity: 17216 and 17215 and 16315
MRSA USA 300 [1]; MIC, time 30 min
  Fluorescence intensity: 17367 and 17359 and 16618
MRSA USA 300 [1]; MIC, time 35 min
  Fluorescence intensity: 17590 and 17525 and 16584
MRSA USA 300 [1]; MIC, time 40 min
  Fluorescence intensity: 17600 and 17633 and 16680
MRSA USA 300 [1]; different concentrations
  time to maximum SYTOX Green fluorescence intensity: ≤ 15 min
MRSA ATCC 43300
  MIC Gram+ MRSA ATCC 43300: 3.13 µM (≈ 4.53 µg/mL)
MRSA USA 300 [2]
  MIC Gram+ MRSA USA 300: 3.13 µM (≈ 4.53 µg/mL)
MRSA 3393
  MIC Gram+ MRSA 3393: 3.13 µM (≈ 4.53 µg/mL)
[3]; K. pneumoniae ATCC 700603, day 0
  Concentration (MIC in drug resistance assay): 6.25 µg/mL
[3]; K. pneumoniae ATCC 700603, day 1
  Concentration (MIC in drug resistance assay): 6.25 µg/mL
[3]; K. pneumoniae ATCC 700603, day 2
  Concentration (MIC in drug resistance assay): 6.25 µg/mL
[3]; K. pneumoniae ATCC 700603, day 3
  Concentration (MIC in drug resistance assay): 6.25 µg/mL
[3]; K. pneumoniae ATCC 700603, day 4
  Concentration (MIC in drug resistance assay): 12.5 µg/mL
[3]; K. pneumoniae ATCC 700603, day 5
  Concentration (MIC in drug resistance assay): 6.25 µg/mL
[3]; K. pneumoniae ATCC 700603, day 6
  Concentration (MIC in drug resistance assay): 6.25 µg/mL
[3]; K. pneumoniae ATCC 700603, day 7
  Concentration (MIC in drug resistance assay): 12.5 µg/mL
[3]; K. pneumoniae ATCC 700603, day 8
  Concentration (MIC in drug resistance assay): 25 µg/mL
[3]; K. pneumoniae ATCC 700603, day 9
  Concentration (MIC in drug resistance assay): 12.5 µg/mL
[3]; K. pneumoniae ATCC 700603, day 10
  Concentration (MIC in drug resistance assay): 12.5 µg/mL
[3]; K. pneumoniae ATCC 700603, day 11
  Concentration (MIC in drug resistance assay): 12.5 µg/mL
[3]; K. pneumoniae ATCC 700603, day 12
  Concentration (MIC in drug resistance assay): 25 µg/mL
[3]; K. pneumoniae ATCC 700603, day 13
  Concentration (MIC in drug resistance assay): 12.5 µg/mL
[3]; K. pneumoniae ATCC 700603, day 14
  Concentration (MIC in drug resistance assay): 25 µg/mL
[3]; K. pneumoniae ATCC 700603, day 15
  Concentration (MIC in drug resistance assay): 25 µg/mL
[3]; K. pneumoniae ATCC 700603, day 16
  Concentration (MIC in drug resistance assay): 12.5 µg/mL
[3]; K. pneumoniae ATCC 700603, day 17
  Concentration (MIC in drug resistance assay): 25 µg/mL
[3]; K. pneumoniae ATCC 700603, day 18
  Concentration (MIC in drug resistance assay): 25 µg/mL
[3]; K. pneumoniae ATCC 700603, day 19
  Concentration (MIC in drug resistance assay): 25 µg/mL
[3]; K. pneumoniae ATCC 700603, day 20
  Concentration (MIC in drug resistance assay): 25 µg/mL
[3]; K. pneumoniae ATCC 700603, day 21
  Concentration (MIC in drug resistance assay): 25 µg/mL
